This note sets out measurements from ChEMBL document CHEMBL3046048, “Design and synthesis of new 2,4,5-triarylimidazole derivatives as selective cyclooxygenase (COX-2) inhibitors” (Med Chem Res, 2012).

Each structure is given as a SMILES string.

This test concerns the target T1, Prostaglandin G/H synthase 1 (Ovis aries, UniProt P05979).
T1 sequence (P05979 whole entry): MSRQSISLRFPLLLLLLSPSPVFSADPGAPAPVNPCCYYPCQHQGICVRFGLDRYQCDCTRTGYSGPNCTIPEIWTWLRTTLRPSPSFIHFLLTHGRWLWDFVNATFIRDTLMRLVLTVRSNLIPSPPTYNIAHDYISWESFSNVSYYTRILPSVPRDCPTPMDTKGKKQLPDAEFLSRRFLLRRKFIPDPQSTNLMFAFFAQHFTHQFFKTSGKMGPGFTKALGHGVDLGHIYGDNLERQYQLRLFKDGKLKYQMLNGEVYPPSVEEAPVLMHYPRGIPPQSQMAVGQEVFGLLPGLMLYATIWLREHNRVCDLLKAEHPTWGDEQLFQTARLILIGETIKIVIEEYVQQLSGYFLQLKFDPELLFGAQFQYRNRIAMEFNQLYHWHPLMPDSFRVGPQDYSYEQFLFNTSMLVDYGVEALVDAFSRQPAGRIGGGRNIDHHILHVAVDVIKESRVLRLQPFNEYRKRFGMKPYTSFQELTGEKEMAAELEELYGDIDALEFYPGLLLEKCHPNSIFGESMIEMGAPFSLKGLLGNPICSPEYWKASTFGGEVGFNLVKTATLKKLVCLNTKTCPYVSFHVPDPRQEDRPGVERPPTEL
Briefly: Inhibition of Ovis aries (sheep) COX1 using arachidonic acid as substrate using cyclic naphthalene hydrazide by chemiluminescence assay.
For the compound `Cc1ccc(-c2nc(-c3ccc(S(C)(=O)=O)cc3)c(-c3ccccc3)[nH]2)cc1`, the IC50 is 10.4 µM.
With `CS(=O)(=O)c1ccc(-c2nc(-c3ccccc3)[nH]c2-c2ccccc2)cc1` the figure was 9.9 µM; with `CC(=O)Nc1ccc(-c2nc(-c3ccc(S(C)(=O)=O)cc3)c(-c3ccccc3)[nH]2)cc1`, 10.4 µM.
Turning to `COc1ccc(-c2nc(-c3ccc(S(C)(=O)=O)cc3)c(-c3ccccc3)[nH]2)cc1`, the IC50 turned out to be 10.6 µM.
Compound `CS(=O)(=O)c1ccc(-c2nc(-c3ccc(O)cc3)[nH]c2-c2ccccc2)cc1` returned an IC50 of 11.3 µM.
With `CS(=O)(=O)c1ccc(-c2nc(-c3ccc(Cl)cc3)[nH]c2-c2ccccc2)cc1` the figure was 10.1 µM; with `CS(=O)(=O)c1ccc(-c2nc(-c3ccc(F)cc3)[nH]c2-c2ccccc2)cc1`, 11.1 µM.
